Holding throughout (assay type): biochemical
Assay [1] deals with T1, Aβ (1-42) (Homo sapiens, UniProt P05067).
T1 construct: Required Aβ (1-42)(California Peptide) was dried from its hexafluoroisopropanol (HFIP) stock solution; purchased California Peptide
As to the kind of experiment: BATYM assay, Aβ (1-42) aggregation, Thioflavin T fluorescence. The procedure: Required Aβ (1-42)(California Peptide) was dried from its hexafluoroisopropanol (HFIP) stock solution. The Aβ (1-42) was dissolved in dimethylsulfoxide (DMSO) and then mixed with phosphate buffered saline (PBS) (pH 7.4). The mixed Aβ (1-42) solution was filtered through a […] Omnipore membrane syringe filter (Millipore, Bedford, MA). The compound to be tested in DMSO (50 times concentrate) was put into each well (0.5 µL/well) of a 96-well plate. The Aβ (1-42) solution was added into each well (24.5 µL/well). The plate was centrifuged at 1,000 g for 5 minutes and incubated at 37°C for 1 day (Aβ 1-42; final concentration 100 µM).
After incubation Thioflavin T (ThT) (30 µM) solution in glycine-NaOH buffer (pH 8.5, 50 mM) was added into each well (250 µL/well), fluorescence was measured (ex. 440/20 nm; em 485/20 nm) using a fluorescence plate reader. The inhibitory activity was calculated as the reduction of fluorescence with the following formula: Inhibition (%) = {(F(Aβ)-F(Aβ+compound)}/{F(Aβ)-F (solvent+compound)} × 100 [formula]
The IC50s (concentration of test compound required to cause a 50% inhibition of aggregation) were calculated by a curve fitting program using the following equation. The data were obtained from two different experiments in triplicate. Inhibition (x) = 100-100/{1 + (x/IC50)^n }, [formula] x = concentration of tested compound (M), IC50 = (M), n = Hill coefficient.

For assay [2], the target named is T2, Aβ(1-40) (Homo sapiens, UniProt P05067). Kind of assay: BASST (Beta-Amyloid Self-seeding, ThioflavinT), inhibition of self-seeded amyloid fibril growth. Set-up: 30 µM soluble Aβ (1-40) in deionized water in assay buffer. The note with it: 30 µM soluble Aβ (1-40), 37°C, 3 to 5 hours, thioflavin T fluorescence, letter in parentheses = lot of compound (no letter = Lot P). The procedure:
BASST (Beta-Amyloid Self-seeding, ThioflavinT)
(§1) An assay for inhibitors of self-seeded amyloid fibril growth
Assay Buffer - 50 mM sodium phosphate, pH 7.5, 100 mM NaCl, 0.02% NaN3, 1 M urea (filter and store at 4°C).
Soluble Aβ (1-40) - 2.2 mg/mL in deionized H2O (store in aliquots at -20°C, keep on ice when thawed) will self-seed after 1 week storage. Typically, the solution should be stored until no lag phase is seen in the assay.
Final assay conditions: 30 µM soluble Aβ (1-40) in deionized water in assay buffer. Compound to be tested is dissolved in DMSO, typically 5-50 mM stock, such that the final concentration of DMSO is <1% v/v in the assay.
Assay: Reaction mixture for 50 assays (on ice) comprised of 1 µL of soluble Aβ (1-40) + 13.5 µL assay buffer per assay. The following are the amounts of the components of the reaction mixture that result in each of the 50 assay wells. 50 µL soluble Aβ (1-40) 675 µL assay buffer
• 1) Prepare the reaction mix above by mixing the components and storing on ice. • 2) Pipet 14.5 µL of reaction mixture into each of 50 wells of a polystyrene U-bottom 96-well microtiter plate (Coming 25881-96) on ice. • 3) Add 1.7 µL of diluted compound to be tested to each well in a column of eight, including solvent control. Serial 3-fold dilutions from 1 mM (100 µM final) in assay buffer -urea = 7 dilutions + zero. Each 96-well plate can therefore accommodate 11 samples + 1 Congo Red control (0.039-5 µM final in 2-fold steps). • 4) Seal the plate with aluminum film and incubate for 10 minutes on ice. • 5) Raise the temperature to 37°C and incubate for 3 to 5 hours (depends on the lot of the peptide). • 6) Remove the aluminum film and add 250 µL/well of 5 µM thioflavin T (ThT) [T-3516, Sigma-Aldrich] in 50 mM glycine-NaOH, pH 8.5. Read fluorescence on a plate reader (ex = 440 nm/20 nm; em = 485 nm/20 nm) within 5 minutes.

Assay [3] deals with T3, Aβ (1-40) peptide (Homo sapiens, UniProt P05067).
T3 construct: 10 µL 0.5 mg/mL Aβ (1-40) peptide in 20% HFIP
T3 sequence (P05067 672-711): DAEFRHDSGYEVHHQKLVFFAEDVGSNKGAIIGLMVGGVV
Kind of assay: BAPA (Beta-Amyloid Peptide Aggregation, pH 6.0), filtration endpoint assay. Here is the method:
BAPA (Beta-Amyloid Peptide Aggregation
This assay is used to provide a measure of inhibition by a compound against the aggregation behavior of the beta amyloid peptide.
The purpose of this assay is to provide a higher volume method of assaying the amount of beta amyloid aggregation using an endpoint assay based on filtration. In this assay, hexafluoroisopropanol (HFIP) is used to break down the initial amyloid peptide to a monomer state and use a concentration of 33 µM which is high enough so that aggregation will occur at pH 6.0 in several hours.
β-Amyloid Peptide Aggregation. pH 6 0 (BAPA)
In a 96-well plate (Costar 3794), we add 25 µL 50 mM Phosphate Buffer, pH 6.0, 10 µL 0.5 mg/mL Aβ (1-40) peptide in 20% HFIP + 0.1 µL/assay radioiodinated ^125I Aβ (1-40) [^125I Aβ(1-40)], and 1 µL of the compound to be tested starting at 50 mM with a concentration of DMSO <1%. Then, we incubate for 2 to 4 hours at room temperature. We stop the reaction with 200 µL of 50 mM phosphate buffer, pH 6.0, and filter it through a 0.2 µm 96-well filter plate (Millipore MAGU N22) We wash the filter plate with 100 µL of the same phosphate buffer. Aggregation was detected on a Microbeta counter after impregnating the filters with Meltilex (1450-441) and is corrected for background

The target in assay [4] is T2, Aβ(1-40). Kind of assay: BASSR (Beta-Amyloid Self-Seeding Radioassay), inhibition of self-seeded amyloid fibril growth. Set-up: Soluble Aβ(1-40) peptide (Bachem, Torrance, CA); purchased Bachem, Torrance, CA. Particulars: 30 µM soluble Aβ (1-40) + 125I-labeled Aβ(1-40), 37°C, 3 to 5 hours, several values in a cell = repeat values, letter in parentheses = lot of compound (no letter = Lot P), (ppt), (v-shape) flags. Here is the method:
BASSR (Beta-Amyloid Self-Seeding Radioassay)
as §1
Assay Buffer - 50 mM sodium phosphate, pH 7.5, 100 mM NaCl, 0.02% NaN3, 1 M urea (filter and store at 4°C)
Soluble Aβ(1-40) peptide (Bachem, Torrance, CA) - 2.2 mg/mL in deionized H2O (stored in aliquots at -20°C, keep on ice when thawed) will self-seed after 1 week storage. Typically, the solution should be stored until no lag phase is seen in the assay.
^125I-labeled Aβ (1-40) - 150K-350K cpm/µL in 100% acetonitrile -0.1% trifluoroacetic acid (TFA) -1% β-mercaptoethanol (aliquots stored at -20°C) ^125I-labeled Aβ(1-40) can be made in accordance with the procedure set forth by H. LeVine, III in Neurobiol. Aging, 16:755 (1995), which is hereby incorporated by reference, or this reagent may be purchased from Amersham, Arlington Heights, Illinois.
Final assay conditions: 30 µM soluble Aβ (1-40) in deionized water in assay buffer + 20-50K cpm ^125I-labeled Aβ(1-40) per assay. Compound to be tested is dissolved in dimethylsulfoxide (DMSO), typically 5-50 mM stock, such that the final concentration of DMSO is <1% v/v in the assay.
Assay: Reaction mixture for 50 assays (on ice) is comprised of 0.1-0.2 µL of ^125I-labeled A^125I-labeled Aβ(1-40) + 1 µL of soluble Aβ (1-40) + 13.5 µL assay buffer per assay. The following are the amounts of the components of the reaction mixture sufficient for 50 assay wells. 5-10 µL ^125I-labeled Aβ (1-40) dried down 675 µL assay buffer 50 µL soluble Aβ (1-40)
• 1) Prepare reaction mixture above by mixing components and storing on ice. • 2) Pipet 14.5 µL of reaction mixture into each of 50 wells on a polypropylene U-bottom 96-well microtiter plate on ice (Costar 3794). • 3) Add 1.7 µL, of diluted compound to be tested to each well in a column of eight, including solvent control. Serial 3-fold dilutions from 1 mM (100 µM final) in assay buffer -urea = 7 dilutions + zero. Each 96-well plate can therefore accommodate 11 samples + 1 Congo Red control (0.039-5 µM final in 2-fold steps). • 4) Seal the plate with aluminum film (Beckman 538619) and incubate for 10 minutes on ice. • 5) Raise the temperature to 37°C and incubate for 3 to 5 hours (depending on the lot of the peptide). • 6) Remove the aluminum film and add 200 µL/well of ice cold assay buffer with urea, collecting the radiolabeled fibrils by vacuum filtration through 0.2 µm pore size GVWP filters in 96-well plates (Millipore MAGV N22, Bedford, MA). Determine the radioactivity of the filters using standard methods well-known to those skilled in the art.

Where [5] appears, read: read-out: BATYM IC50, Aβ 1-42 final concentration 100 µM, 37°C, 1 day, letter in parentheses = lot of compound (no letter = Lot P).
The mark [6] stands for this setting: read-out: BAPA IC50; Aβ (1-40) 33 µM, pH 6.0, 2 to 4 hours at room temperature; letter in parentheses = lot of compound (no letter = Lot P).
Setting [7] is: Aβ 1-42 final concentration 100 µM, 37°C, 1 day, letter in parentheses = lot of compound (no letter = Lot P), read-out: BATYM IC50.
[8] abbreviates: read-out: BASST IC50 (converted).
[9] abbreviates: Aβ (1-40) 33 µM, pH 6.0, 2 to 4 hours at room temperature; letter in parentheses = lot of compound (no letter = Lot P); read-out: BAPA IC50.

“And” between values parts separate entries of the source, which are not always exact repeats. Equal entries are not always repeated. Where two headings read alike, the source gives them in different places.

T2 sequence (P05067 672-711): as above
T1 sequence (P05067 672-713): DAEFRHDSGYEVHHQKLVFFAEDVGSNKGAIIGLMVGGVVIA

Turning to `O=C(O)c1cc([N+](=O)[O-])ccc1Nc1ccc2c(c1)CN(c1cccc(Cl)c1)C2` [Example 14, 2-[2-(3-Chloro-phenyl)-2,3-dihydro-1H-isoindol-5-ylamino]-5-nitro-benzoic acid], the IC50 in assay [1] (setting [5]) is 12.6 µM; in assay [2] (read-out: BASST IC50) it was 0.8 µM and 1 µM; in assay [3] (setting [6]), more than 100 µM.

Turning to “4-Methoxy-5-nitro-2-[2-(3,4,5-trimethoxyphenyl)-2,3-dihydro-1H-isoindol-5-ylamino]benzoic acid [Example 3]”, the IC50 in assay [1] (setting [7]) was 17.4 µM; in assay [2] (setting [8]), 3 µM and 2.1 µM; in assay [3] (setting [9]) it was 64 µM.

Consider `O=C(O)c1cc([N+](=O)[O-])ccc1Nc1ccc2c(c1)CN(c1ccc(Cl)c(Cl)c1)C2` [Example 5, 2-[2-(3,4-Dichlorophenyl)-2,3-dihydro-1H-isoindol-5-ylamino]-5-nitro-benzoic acid], for which the IC50 in assay [1] (setting [7]) is 11.4 µM; in assay [4] (read-out: BASSR IC50 (converted)), 5 µM and 4.1 µM and 3 µM; in assay [2] (setting [8]) it was 3 µM.

For `O=C(O)c1ccccc1Nc1ccc2c(c1)CN(c1ccccc1)C2` [Example 13, 2-(2-Phenyl-2,3-dihydro-1H-isoindol-5-ylamino)-benzoic acid], the IC50 is 90.2 µM and 60 µM and > 100 µM and 79.7 µM and 83 µM in assay [1] (setting [5]); > 100 µM and 52 µM and 60 µM in assay [4] (read-out: BASSR IC50).

Turning to `O=C(O)c1cccnc1Nc1ccc2c(c1)CN(c1ccc(Cl)c(Cl)c1)C2` [Example 24, 2-[2-(3,4-Dichloro-phenyl)-2,3-dihydro-1H-isoindol-5-ylamino]-nicotinic acid], the results for the IC50 in assay [4] (read-out: BASSR IC50) and in assay [2] (read-out: BASST IC50) were 18 µM and 0.3 µM, respectively.

In the case of `O=C(O)c1cc([N+](=O)[O-])ccc1Nc1ccc2c(c1)CN(c1cccc(Cl)c1)C2` [Example 11, 2-[2-(3-Chloro-phenyl)-2,3-dihydro-1H-isoindol-5-ylamino]-5-nitro-benzoic acid], the IC50 is 12.6 µM in assay [1] (setting [5]); 0.8 µM and 1 µM in assay [2] (read-out: BASST IC50); more than 100 µM in assay [3] (setting [6]).

Consider `COc1ccc(N2Cc3ccc(Nc4ccccc4C(=O)O)cc3C2)c(OC)c1OC` [Example 1, 2-[2-(2,3,4-Trimethoxy-phenyl)-2,3-dihydro-1H-isoindol-5-ylamino]-benzoic acid], for which the IC50 was 11.3 µM and 46.4 µM and 59.7 µM in assay [1] (setting [7]); 2 µM and 1.6 µM and 3 µM (2×) and 15 µM (2×) in assay [2] (setting [8]); 72 µM in assay [3] (setting [9]).

The record behind these values is patent publication EP1192131B1, “METHOD OF INHIBITING AMYLOID PROTEIN AGGREGATION AND IMAGING AMYLOID DEPOSITS USING ISOINDOLINE DERIVATIVES” (Warner-Lambert Company LLC, priority 1999, dated 2000).
